pIC50: −log10 of the molar value. Where two headings read alike, the source gives them in different places.
Assays:
[1] = test system: HPAC (homozygous mutant KRAS G12D human pancreatic cell line); experiment: KRAS 3D-Cell Proliferation Assay, HPAC (Example 503); type: cell-based; details: HPAC 3D culture, 7 days, CellTiter-Glo 3D, read-out: Prolif HPAC 3D ATP IC50
Experimental: (§1) Example 503: KRAS 3D-Cell Proliferation Assays. Cellular potencies of compounds are assessed by evaluating inhibition of proliferation in 3D cultures of homozygous mutant KRAS G12D human pancreatic cell lines (AsPC-1 and HPAC) as compared to a KRAS wild type human lung adenocarcinoma cell line (PC-9 and/or H1975). Cells are seeded into 384-well black round-bottom, ultra-low attachment assay plates in 50 uL cell growth medium (RPMI-1640 with 10% fetal bovine serum and 2 mM L-glutamine). After overnight incubation at 37° C. and 5% CO2, compounds solubilized in DMSO are added as dilution series to the wells in a total volume of 150 nL (0.3% DMSO final). The cells are incubated for 7 days at 37° C. and 5% CO2. Cell proliferation is quantitated by addition of 40 uL/well of CellTiter-GloÒ 3D (Promega), and the well contents are mixed 20× at high speed using liquid handling automation workstation (Bravo with 384-well head) and centrifuged at 1500 rpm for 2 minutes to eliminate bubbles. This reagent in combination with mechanical disruption releases the cellular ATP to promote activity in a luciferase-based enzyme/substrate chemiluminescent detection system. After a 30-minute incubation under ambient conditions with shaking and an additional 10 minutes without shaking, the luminescence is read on a plate reader (e.g., EnVision [PerkinElmer]). The results are normalized to percent inhibition based on the following control samples: DMSO (0% inhibition) and 1 μM staurosporine (100% inhibition). The normalized luminescence results are plotted against compound concentration, and the data are fit to a 4-parameter Hill equation to determine the IC50 values.

[2] = test system: H1975 (KRAS wild type human lung adenocarcinoma cell line); experiment: KRAS 3D-Cell Proliferation Assay, H1975 (Example 503); type: cell-based; details: H1975 3D culture, 7 days, CellTiter-Glo 3D, read-out: Prolif H1975 3D ATP IC50
Experimental: as §1

C[C@@H]1Oc2nc(-c3cc(N)c(F)c(F)c3CC(F)F)c(F)c3cc(OC[C@@H]4CC[C@H]5COCCN54)nc(c23)N2C[C@H]3CC[C@H](N3)[C@@H]12 [Compound 158, 4-(2,2-Difluoroethyl)-2,3-difluoro-5-((5S,5aS,6S,9R)-1-fluoro-13-(((6S,8aS)-hexahydro-1H-pyrrolo[2,1-c][1,4]oxazin-6-yl)methoxy)-5-methyl-5a,6,7,8,9,10-hexahydro-5H-6,9-epiminoazepino[2′,1′:3,4][1,4]oxazepino[5,6,7-ij][2,7]naphthyridin-2-yl)aniline]
pIC50 ([1]; Homo sapiens, HPAC, 168 h): 8.00
pIC50 ([2]; Homo sapiens, NCI-H1975, 168 h): 4.86

COCC1(F)CCN(CC2(COc3nc4c5c(nc(-c6cc(N)nc(C)c6C(F)(F)F)c(F)c5n3)O[C@@H](C)[C@@H]3[C@@H]5CC[C@H](CN43)N5)CC2)C1 (stereo partly drawn) [Compound 270, 4-((5S,5aS,6S,9R)-1-fluoro-12-((1-((3-fluoro-3-(methoxymethyl)pyrrolidin-1-yl)methyl)cyclopropyl)methoxy)-5-methyl-5a,6,7,8,9,10-hexahydro-5H-4-oxa-3,10a,11,13,14-pentaaza-6,9-methanonaphtho[1,8-ab]heptalen-2-yl)-6-methyl-5-(trifluoromethyl)pyridin-2-amine]
pIC50 ([1]; Homo sapiens, HPAC, 168 h): 8.60
pIC50 ([2]; Homo sapiens, NCI-H1975, 168 h): 5.61

Cc1cc(N)c(F)c(-c2nc3c4c(nc(OC[C@@H]5CC[C@H]6COCCN65)nc4c2F)N2C[C@H]4CC[C@H](N4)[C@H]2[C@H](C)O3)c1C=C(F)F [Compound 99, 4-(2,2-Difluorovinyl)-2-fluoro-3-((5S,5aS,6S,9R)-1-fluoro-12-(((6S,8aS)-hexahydro-1H-pyrrolo[2,1-c][1,4]oxazin-6-yl)methoxy)-5-methyl-5a,6,7,8,9,10-hexahydro-5H-4-oxa-3,10a,11,13,14-pentaaza-6,9-methanonaphtho[1,8-ab]heptalen-2-yl)-5-methylaniline]
pIC50 ([1]; Homo sapiens, HPAC, 168 h): 7.40
pIC50 ([2]; Homo sapiens, NCI-H1975, 168 h): 5.30

C[C@@H]1Oc2nc(-c3cc(N)ccc3C(F)(F)F)c(F)c3nc(OC[C@@]45CCCN4C[C@H](F)C5)nc(c23)N2C[C@H]3CC[C@H](N3)[C@@H]12 [Compound 72, 3-((5S,5aS,6S,9R)-1-Fluoro-12-(((2R,7aS)-2-fluorotetrahydro-1H-pyrrolizin-7a(5H)-yl)methoxy)-5-methyl-5a,6,7,8,9,10-hexahydro-5H-4-oxa-3,10a,11,13,14-pentaaza-6,9-methanonaphtho[1,8-ab]heptalen-2-yl)-4-(trifluoromethyl)aniline]
pIC50 ([1]; Homo sapiens, HPAC, 168 h): 8.50
pIC50 ([2]; Homo sapiens, NCI-H1975, 168 h): 5.97

Cc1c(F)c(O)cc(-c2nc3c4c(nc(OC[C@@]56CCCN5C[C@H](F)C6)nc4c2F)N2C[C@H]4CC[C@H](N4)[C@H]2[C@H](C)O3)c1C(F)(F)F [Compound 202, 2-Fluoro-5-((5S,5aS,6S,9R)-1-fluoro-12-(((2R,7aS)-2-fluorotetrahydro-1H-pyrrolizin-7a(5H)-yl)methoxy)-5-methyl-5a,6,7,8,9,10-hexahydro-5H-4-oxa-3,10a,11,13,14-pentaaza-6,9-methanonaphtho[1,8-ab]heptalen-2-yl)-3-methyl-4-(trifluoromethyl)phenol]
pIC50 ([1]; Homo sapiens, HPAC, 168 h): 5.70
pIC50 ([2]; Homo sapiens, NCI-H1975, 168 h): 4.70

Cc1c(F)c(N)cc(-c2nc3c4c(nc(OCCCN5C[C@@H]6C[C@H]5CO6)nc4c2F)N2C[C@H]4CC[C@H](N4)[C@H]2[C@H](C)O3)c1C(F)(F)F [Compound 164, 5-((5S,5aS,6S,9R)-12-(3-((1S,4S)-2-oxa-5-azabicyclo[2.2.1]heptan-5-yl)propoxy)-1-fluoro-5-methyl-5a,6,7,8,9,10-hexahydro-5H-4-oxa-3,10a,11,13,14-pentaaza-6,9-methanonaphtho[1,8-ab]heptalen-2-yl)-2-fluoro-3-methyl-4-(trifluoromethyl)aniline]
pIC50 ([1]; Homo sapiens, HPAC, 168 h): 7.36
pIC50 ([2]; Homo sapiens, NCI-H1975, 168 h): 5.15

Cc1c(F)c(N)cc(-c2nc3c4c(nc(OCC[C@@H]5CC[C@H]6COCCN56)nc4c2F)N2C[C@H]4CC[C@H](N4)[C@H]2[C@H](C)O3)c1C(F)(F)F [Compound 154, 2-Fluoro-5-((5S,5aS,6S,9R)-1-fluoro-12-(2-((6S,8aS)-hexahydro-1H-pyrrolo[2,1-c][1,4]oxazin-6-yl)ethoxy)-5-methyl-5a,6,7,8,9,10-hexahydro-5H-4-oxa-3,10a,11,13,14-pentaaza-6,9-methanonaphtho[1,8-ab]heptalen-2-yl)-3-methyl-4-(trifluoromethyl)aniline]
pIC50 ([1]; Homo sapiens, HPAC, 168 h): 7.69
pIC50 ([2]; Homo sapiens, NCI-H1975, 168 h): 5.39

C[C@@H]1Oc2nc(-c3cc(O)cc4ccc(F)c(F)c34)c(F)c3nc(OC[C@@]45CCCN4C[C@H](F)C5)nc(c23)N2C[C@H]3CC[C@H](N3)[C@@H]12 [Compound 82, 5,6-Difluoro-4-((5S,5aS,6S,9R)-1-fluoro-12-(((2R,7aS)-2-fluorotetrahydro-1H-pyrrolizin-7a(5H)-yl)methoxy)-5-methyl-5a,6,7,8,9,10-hexahydro-5H-4-oxa-3,10a,11,13,14-pentaaza-6,9-methanonaphtho[1,8-ab]heptalen-2-yl)naphthalen-2-ol]
pIC50 ([1]; Homo sapiens, HPAC, 168 h): 4.70
pIC50 ([2]; Homo sapiens, NCI-H1975, 168 h): 4.70

Cc1c(F)c(N)cc(-c2nc3c4c(nc(OC[C@@]56CCCN5C[C@H](F)C6)nc4c2F)N2C[C@H]4CC[C@H](N4)C2C(C(F)F)O3)c1C(F)(F)F (single isomer, unassigned) [238 (isomer 1)]
pIC50 ([1]; Homo sapiens, HPAC, 168 h): 5.70
pIC50 ([2]; Homo sapiens, NCI-H1975, 168 h): 4.87

Cc1nc(N)c(F)c(-c2nc3c4c(nc(OCC5(CN6CCOCC6)CC5)nc4c2F)N2C[C@H]4CC[C@H](N4)[C@H]2[C@H](C)O3)c1C(F)(F)F [Compound 219, 3-Fluoro-4-((5S,5aS,6S,9R)-1-fluoro-5-methyl-12-((1-(morpholinomethyl)cyclopropyl)methoxy)-5a,6,7,8,9,10-hexahydro-5H-4-oxa-3,10a,11,13,14-pentaaza-6,9-methanonaphtho[1,8-ab]heptalen-2-yl)-6-methyl-5-(trifluoromethyl)pyridin-2-amine]
pIC50 ([1]; Homo sapiens, HPAC, 168 h): 8.44
pIC50 ([2]; Homo sapiens, NCI-H1975, 168 h): 5.08

Cc1c(F)c(N)cc(-c2nc3c4c(nc(OC[C@]5(CN6CCOCC6)CC5(F)F)nc4c2F)N2C[C@H]4CC[C@H](N4)[C@H]2[C@H](C)O3)c1C(F)(F)F [167 a]
pIC50 [1]: 8.80
pIC50 [2]: 5.94

C[C@@H]1Oc2nc(-c3cc(N)c(F)cc3CC(F)F)c(F)c3nc(OC[C@@]45CCCN4C[C@H](F)C5)nc(c23)N2C[C@H]3CC[C@H](N3)[C@@H]12 [Compound 187, 4-(2,2-Difluoroethyl)-2-fluoro-5-((5S,5aS,6S,9R)-1-fluoro-12-(((2R,7aS)-2-fluorotetrahydro-1H-pyrrolizin-7a(5H)-yl)methoxy)-5-methyl-5a,6,7,8,9,10-hexahydro-5H-4-oxa-3,10a,11,13,14-pentaaza-6,9-methanonaphtho[1,8-ab]heptalene-2-yl)aniline]
pIC50 ([1]; Homo sapiens, HPAC, 168 h): 7.46
pIC50 ([2]; Homo sapiens, NCI-H1975, 168 h): 4.72

Cc1cc(-c2nc3c4c(nc(OC[C@@]56CCCN5C[C@H](F)C6)nc4c2F)N2C[C@H]4CC[C@H](N4)[C@H]2[C@H](C)O3)c(F)c(N)n1 [Compound 177, 3-Fluoro-4-((5S,5aS,6S,9R)-1-fluoro-12-(((2R,7aS)-2-fluorotetrahydro-1H-pyrrolizin-7°(5H)-yl)methoxy)-5-methyl-5°,6,7,8,9,10-hexahydro-5H-4-oxa-3,10°,11,13,14-pentaaza-6,9-methanonaptho[1,8-ab]heptalen-2-yl)-6-methylpyridin-2-amine]
pIC50 ([1]; Homo sapiens, HPAC, 168 h): 5.35
pIC50 ([2]; Homo sapiens, NCI-H1975, 168 h): 4.70

Cc1cc(N)cc(-c2nc3c4c(nc(OC[C@@]56CCCN5CC5(CC5(F)F)C6)nc4c2F)N2C[C@H]4CC[C@H](N4)[C@H]2[C@H](C)O3)c1C(F)(F)F (stereo partly drawn) [Compound 68, 3-((5S,5aS,6S,9R)-12-(((7a′S)-2,2-Difluorodihydro-1′H,3′H-spiro[cyclopropane-1,2′-pyrrolizin]-7a′(5′H)-yl)methoxy)-1-fluoro-5-methyl-5a,6,7,8,9,10-hexahydro-5H-4-oxa-3,10a,11,13,14-pentaaza[6,9]methanonaphtho[1,8-ab]heptalen-2-yl)-5-methyl-4-(trifluoromethyl)aniline]
pIC50 ([1]; Homo sapiens, HPAC, 168 h): 9.69
pIC50 ([2]; Homo sapiens, NCI-H1975, 168 h): 6.84

Cc1c(F)c(N)cc(-c2nc3c4c(nc(OC[C@@H]5CC[C@@H]6C[C@@H](C(=O)N(C)C)CCN65)nc4c2F)N2C[C@H]4CC[C@H](N4)[C@H]2[C@H](C)O3)c1C(F)(F)F (single isomer, unassigned) [133 (isomer 1)]
pIC50 ([1]; Homo sapiens, HPAC, 168 h): 7.57
pIC50 ([2]; Homo sapiens, NCI-H1975, 168 h): 5.58

Cc1c(F)c(N)cc(-c2nc3c4c(nc(OCC56COC(CN5C)C6)nc4c2F)N2C[C@H]4CC[C@H](N4)[C@H]2[C@H](C)O3)c1C(F)(F)F [Compound 132, 2-Fluoro-5-((5S,5aS,6S,9R)-1-fluoro-5-methyl-12-((5-methyl-2-oxa-5-azabicyclo[2.2.1]heptan-4-yl)methoxy)-5a,6,7,8,9,10-hexahydro-5H-4-oxa-3,10a,11,13,14-pentaaza-6,9-methanonaphtho[1,8-ab]heptalen-2-yl)-3-methyl-4-(trifluoromethyl)aniline]
pIC50 ([1]; Homo sapiens, HPAC, 168 h): 7.15
pIC50 ([2]; Homo sapiens, NCI-H1975, 168 h): 4.85

Source: patent US12338256B2, “Aza-tetracyclic oxazepine compounds and uses thereof” (Genentech, Inc., priority 2022, dated 2025)
